What all share (format): in vivo
Assay [1] deals with MK-801-induced hyperlocomotion in C57BL/6 mice. As to the kind of experiment: Open field, MK-801-induced hyperlocomotion. The following applies: for Effect on MK-801 induced hyperlocomotion (open field): MK-801 0.2 mg/kg i.p., mice; for Effect on MK-801-induced hyperlocomotion (FIG. 1): different dosages, compared to the MK-801 group. The text has this:
(§1) The NMDA-receptor antagonist MK-801-induced negative or cognitive deficits in C57BL/6 mice were in a well-established drug-induced schizophrenia mouse model and as a useful pharmacological animal model to identify if the RS-D7, its analog and its prodrug improve the symptoms through the NMDA receptor.
(§2) All wild-type (WT) mice used in this study were backcrossed onto a C57BL/6J background from the Laboratory Animal Center of National Taiwan University Hospital, and all behavioral examinations were conducted in WT mice. For acclimatizing to laboratory conditions, the mice were allowed free access to food and water and were housed in groups with a 12 hours light-dark cycle in a temperature and humidity controlled room of the Psychology Department, National Taiwan University. All animals within the age of 3 months were housed individually one week before experiment testing with food and water available ad libitum. In the beginning of the experiments, the mice were handled and weighted daily at least 1 week before the behavioral experiments. The entire animal procedures were performed according to protocols approved by the Animal Care and Use Committee established by the National Taiwan University.
(§3) MK-801 was dissolved in saline and administered at a volume of 0.01 ml/g body weight. RS-D7, Drug 12083 (analog of RS-D7) and was freshly dissolved in 1% CMC to the concentration of 2 mg/ml before usage. Prodrug 28095 was freshly dissolved in NMP:HP-beta-CD:H2O (5:25:70) to the concentration of 2 mg/ml before usage. All animals were given vehicle (saline) or MK-801 (0.2 mg/kg, i.p.) 25 minutes before the behavioral experiments. Both vehicle (1% CMC or NMP:HP-beta-CD:H2O) and experimental groups (RS-D7, Drug 12083 or Prodrug 28095) were treated after 5 minutes MK-801 administration with the appropriate dose via P.O. injections (at a volume of 0.01 ml/g body weight).
(§4) For investigating the treatment effect of RS-D7 for negative and cognitive symptoms, a series of three behavioral tests (run from the first to the third week), which included open field, sucrose preference test and prepulse inhibition were performed in sequence with a 1-week interval between tests.
To assess spontaneous locomotor activity, each subject was placed into the center of an open-field apparatus (25.40*25.40*40.64 cm^3, Coulbourn Instruments, Whitehall, Pa., USA) under dim lighting condition (60 lx). Motor activity parameters (including total travel distance and travel distance per 10 minutes) were monitored and recorded over a 60 minutes period by using Smart video tracking software (Panlab, Harvard apparatus, US). For comparing the treatment effects of different treatment groups, the percentage change of rescue effect on MK-801-induced hyperlocomotion was calculated using the following formula: %=(rescue effect of drug−MK-801 effect)×100%/MK-801 effect.

In assay [2] the test system is MK-801-induced anhedonia in C57BL/6 mice. Nature of the assay: Sucrose preference test, MK-801-induced anhedonia. The settings on record: for Effect on MK-801 induced anhedonia (sucrose preference): MK-801 0.2 mg/kg i.p., mice; for Effect on anhedonia after acute MK-801 injection (FIG. 2): different dosages.
From the text: as §1, §2, §3, §4
To assess the anhedonia, one of the negative symptoms of schizophrenia, all mice underwent 4-day testing. In the beginning of the sucrose preference, all mice were deprived of water for 23 hours in all the experiment from one day before the first day. On the first day, each mouse was given free access to 2 identical bottles with water for 1 hour. Then, the 2 identical bottles were replaced that one filled with 1% (wt/vol) sucrose solution and the other with water on the second day. On the third and fourth day, each mouse was received MK-801 and RS-D7 treatment before the experiment, and also free accessed to bottles for 1 hour. After the experiment, the 2 bottles were weighted to measure the 1-hour consumption of sucrose solution and water. The sucrose preference percentage (SPP) was calculated using the following formula: % SPP=sucrose solution consumption (g)×100%/[water consumption (g)+sucrose solution consumption (g)].

In assay [3] the test system is MK-801-induced PPI deficit in C57BL/6 mice. Nature of the assay: Prepulse inhibition, MK-801-induced PPI deficit. The following applies: MK-801 0.2 mg/kg i.p.
From the text: as §1, §2, §3, §4
To assess the sensorimotor gating function, each mouse was tested with the SR-LAB startle apparatus (San Diego Instruments, San Diego, Calif., USA). The background noise was 72 dB during testing. Each session was initiated with a 5 minutes acclimatization period followed by 64 trials, consisting of pulse-alone (P-alone) trials, prepulse pulse (pp+P) trials, and no stimulation (nostim) trials. A P-alone trial was a 120 dB white noise burst of 40 msec. In the pp+P trials, the 120 dB pulse was preceded (by 100 msec) by a 20 msec of white noise prepulse burst of 78 dB (PP6), 82 dB (PP10), or 90 dB (PP18). The nostim trials consisted of background noise only. The session began and ended with a block of six presentations of the P-alone trial. Between these two blocks, the rest of the 52 trials were performed pseudorandomly and separated by intertrial intervals of 15 sec on average (varying between 10 and 20 sec). PPI was calculated as a percentage of the startle response using the formula: % PPI=100× [(P-alone score)-(pp+P score)]/(pulse-alone score), where the pulse-alone score was the average of the pulse-alone values from the in-between block of 52 trials.

As for `COc1c(C)cnc(C[S+]([O-])c2nc3ccc(O)cc3[nH]2)c1C` (stereo not drawn) [RS-D7, reference compound], the “Effect on MK-801 induced hyperlocomotion (open field)” value is “did not display the treatment effect” in assay [1] (100 mg/kg P.O.), “rescued the MK-801 induced hyperlocomotion” in assay [1] (200 mg/kg P.O.) and “rescued the MK-801 induced hyperlocomotion” in assay [1] (400 mg/kg P.O.). In assay [1], the “Effect on MK-801-induced hyperlocomotion (FIG. 1)” value is listed as “can rescue the MK-801-induced hyperlocomotion”. The “Effect on MK-801 induced anhedonia (sucrose preference)” value in assay [2] (100 mg/kg P.O.), in assay [2] (200 mg/kg P.O.) and in assay [2] (400 mg/kg P.O.) was “rescued the MK-801 induced anhedonia deficit” in each case. In assay [2], the “Effect on anhedonia after acute MK-801 injection (FIG. 2)” value is given as “rescue the anhedonia after acute MK-801 injection”. The “Effect on MK-801 induced PPI deficit” value in assay [3] (100 mg/kg P.O.), in assay [3] (200 mg/kg P.O.) and in assay [3] (400 mg/kg P.O.) was “significantly alleviated MK-801 induced PPI deficit” throughout.
With `COc1c(C)cnc(CSc2nc3cc(C(=O)O)ccc3n2CCC2=CCCCC2)c1C` [compound 12083, 1-(2-(cyclohex-1-en-1-yl)ethyl)-2-(((4-methoxy-3,5-dimethylpyridin-2-yl)methyl)thio)-1H-benzo[d]imidazole-5-carboxylic acid], the “Effect on MK-801 induced hyperlocomotion (open field)” value in assay [1] (20 mg/kg P.O.) and in assay [1] (40 mg/kg P.O.) was “alleviated MK-801 induced hyperlocomotion deficits” in each case. The “Effect on MK-801-induced hyperlocomotion (FIG. 1)” value in assay [1] is on record as “can rescue the MK-801-induced hyperlocomotion”. Also, the “Effect on MK-801 induced anhedonia (sucrose preference)” value in assay [2] (20 mg/kg P.O.) is “normalized MK-801 induced anhedonia”. Also, the “Effect on anhedonia after acute MK-801 injection (FIG. 2)” value in assay [2] is “rescue the anhedonia after acute MK-801 injection”. In addition, the “Effect on MK-801 induced PPI deficit” value in assay [3] (20 mg/kg P.O.) and in assay [3] (40 mg/kg P.O.) was “significantly alleviated MK-801 induced PPI deficit” throughout.
